Experimental data taken from US9426996B2, “Use of benzoxaboroles as volatile antimicrobial agents on meats, plants, or plant parts” (AgroFresh Inc., priority 2013, dated 2016).

Key:
[1] = test system: Pectobacterium carotovorum; assay: in vivo volatile assay on potato, onion and carrot cubes; conditions: 50 mg/L; for Log CFU/mL: 10 C for four days
Experimental: To test the effect of Compound A at controlling bacterial pathogens of vegetables, potato, onion and carrot are chopped into small cubes and surface sterilized with 0.825% NaOCl and allowed to dry. Four small cubes (approximately […]) of each vegetable are placed in a sterile Petri plate. Each cube is inoculated with 25 μL of Pectobacterium carotovorum (bacterial concentration of OD 1.0, 600 nm). […] No. 1001-042) attached to the inner side of the lid. The acetone is permitted to evaporate for five minutes before closing the plate and sealing it with parafilm. The vegetables are incubated at 10 C for four days.

Botrytis cinerea [2] = assay: in vivo volatile bioassay using inoculated white carnations
Experimental: In order to assess the in vivo activity of volatile antimicrobial Compound A on controlling Botrytis cinerea on ornamental flowers, a volatile bioassay is developed using white carnations.
Five carnations are placed in an 800 mL jar containing 200 mL of a common commercial flower preservative. Five jars are then placed in a 117 L Rubbermaid storage box (Cat #2244). The petals are uniformly spray-inoculated with 5 mL of 1×10^5 spores/mL of Botrytis cinerea suspension. The tub is closed tightly. For treatment application, Compound A is dissolved in an aqueous 1,2-propylene glycol solution (3:1) and 5 mL of the solution is volatilized into the container using an ES-100-H SmartFog system (Reno, Nev.) through a ½″ side port that is sealed immediately after the application. The flowers are incubated for 3 days at 21° C. After storage, the flowers are evaluated for incidence based on presence of disease on flower petals relative to untreated control flowers for up to 8 days at 21° C., with results summarized in Table 12.

Fusarium sambucinum = assay: in vivo volatile assay on potato slices; conditions: 10 mg/L, 21° C. for 3 days
Experimental: To test the effect of Compound A (FIG. 1) on vegetables, potato, onion and squash were obtained from a local store, and the surface sterilized with 0.825% sodium hypochlorite (NaOCl). A slice of potato or two leaves of onion were placed in a sterile Petri plate, while whole squash were placed in a sterile 10.8-cup SnapWare airtight container (Model #109842). Each slice of potato was inoculated with 20 μL of a 1×10^5 spores/mL Fusarium sambucinum suspension, while onions were inoculated with 20 μL of a 1×10^6 spores/mL Botrytis cinerea suspension. For inoculation of squash, a small core was removed, and a mycelial plug of Phytophthora capsici was inserted and capped with the core. Compound A was diluted in acetone, and added to a 42.5 mm Whatman #1 filter disk (Cat. No. 1001-042) attached to the inner side of the lid at a rate to achieve a final headspace concentration of 10 mg/L. The acetone was permitted to evaporate for 5 minutes before parafilm sealing the plates or closing the airtight containers. The vegetables were incubated at 21° C. for 3 days, and evaluated for mycelial growth, dry rot, and water-soaked appearance (mm diameter) with results summarized in Table 13.

Botrytis cinerea [3] = assay: in vivo volatile bioassay using strawberry
Experimental: In order to assess the in vivo activity of volatile antimicrobial compounds, a volatile bioassay is developed using strawberry. Two fruit are placed inside a 240 mL jar, with the calyx facing downwards. […] The acetone is permitted to evaporate for 5 minutes. The jars are then capped with the lids containing the fungicide, and placed for 5 days at 21° C. After storage, fruit are evaluated for incidence and severity of disease and appearance of phytotoxicity.

Botrytis cinerea [4] = assay: in vivo dose by time volatile bioassay using strawberry; conditions: for Incidence (%) / Severity (0 to 3): strawberries
Experimental: In order to assess the in vivo dose by time activity of volatile antimicrobial compounds, a volatile bioassay is developed using strawberry. Two fruit are placed inside a 240 mL jar, with the calyx facing downwards. […] Whatman filter paper (Cat. No. 1822-024) is placed inside duplicate jar lids. Compound A (benzoxaborole; FIG. 1) is diluted in acetone, and the appropriate amount of compound is added to the disks at two rates 0.008 or 0.125 mg. The acetone is permitted to evaporate for 5 minutes. The jars are capped with the lids containing the fungicide, and incubated with the volatile fungicide for 1, 3, 6, 24 or 72 hours. After incubation, lids containing the disk with Compound A are replaced with new lids without Compound A. All samples are maintained at 21° C. for 3 days, and then the lids are removed and maintained for an additional 48 hours, all at 90% relative humidity (R.H.). The fruit are evaluated for incidence and severity of disease and appearance of phytotoxicity.

Botrytis cinerea [5] = assay: as above; conditions: 0.125 mg, 3-day treatment at 21° C. plus 2 days at 21° C., vs acetone only control

OB1OCc2cc(F)ccc21 [Compound A]
Log reduction ([1]; Carrot): 0.29 log
Log CFU/mL ([1]; Carrot): 6.06 Log CFU/mL
Log reduction ([1]; Onion): 2.14 log
Log CFU/mL ([1]; Onion): 5.99 Log CFU/mL
Log reduction ([1]; Potato): 0.84 log
Log CFU/mL ([1]; Potato): 6.63 Log CFU/mL
Disease incidence (%) on Petals (Botrytis cinerea [2]; 0.04 mg/L, Day 0): 0%
Disease incidence (%) on Petals (Botrytis cinerea [2]; 0.04 mg/L, Day 1): 0%
Disease incidence (%) on Petals (Botrytis cinerea [2]; 0.04 mg/L, Day 2): 16%
Disease incidence (%) on Petals (Botrytis cinerea [2]; 0.04 mg/L, Day 3): 40%
Disease incidence (%) on Petals (Botrytis cinerea [2]; 0.04 mg/L, Day 8): 92%
Disease incidence (%) on Petals (Botrytis cinerea [2]; 0.2 mg/L, Day 0): 0%
Disease incidence (%) on Petals (Botrytis cinerea [2]; 0.2 mg/L, Day 1): 8%
Disease incidence (%) on Petals (Botrytis cinerea [2]; 0.2 mg/L, Day 2): 20%
Disease incidence (%) on Petals (Botrytis cinerea [2]; 0.2 mg/L, Day 3): 16%
Disease incidence (%) on Petals (Botrytis cinerea [2]; 0.2 mg/L, Day 8): 36%
Disease incidence (%) on Petals (Botrytis cinerea [2]; 1 mg/L, Day 0): 0%
Disease incidence (%) on Petals (Botrytis cinerea [2]; 1 mg/L, Day 1): 0%
Disease incidence (%) on Petals (Botrytis cinerea [2]; 1 mg/L, Day 2): 0%
Disease incidence (%) on Petals (Botrytis cinerea [2]; 1 mg/L, Day 3): 4%
Disease incidence (%) on Petals (Botrytis cinerea [2]; 1 mg/L, Day 8): 16%
Dry rot (Fusarium sambucinum): 0 mm
Mycelial growth (Fusarium sambucinum): 0 mm
Percent (%) Incidence of Botrytis cinerea on Strawberry (in vivo) (Botrytis cinerea [3]; 0.005 mg/disk, 5 days at 21° C.): 75%
Percent (%) Incidence of Botrytis cinerea on Strawberry (in vivo) (Botrytis cinerea [3]; 0.01 mg/disk, 5 days at 21° C.): 100%
Percent (%) Incidence of Botrytis cinerea on Strawberry (in vivo) (Botrytis cinerea [3]; 0.02 mg/disk, 5 days at 21° C.): 50%
Percent (%) Incidence of Botrytis cinerea on Strawberry (in vivo) (Botrytis cinerea [3]; 0.04 mg/disk, 5 days at 21° C.): 75%
Percent (%) Incidence of Botrytis cinerea on Strawberry (in vivo) (Botrytis cinerea [3]; 0.08 mg/disk, 5 days at 21° C.): 0%
Percent (%) Incidence of Botrytis cinerea on Strawberry (in vivo) (Botrytis cinerea [3]; 0.16 mg/disk, 5 days at 21° C.): 0%
Percent (%) Incidence of Botrytis cinerea on Strawberry (in vivo) (Botrytis cinerea [3]; 0.32 mg/disk, 5 days at 21° C.): 0%
Percent (%) Incidence of Botrytis cinerea on Strawberry (in vivo) (Botrytis cinerea [3]; 0.64 mg/disk, 5 days at 21° C.): 0%
Percent (%) Incidence of Botrytis cinerea on Strawberry (in vivo) (Botrytis cinerea [3]; 1.25 mg/disk, 5 days at 21° C.): 0%
Percent (%) Incidence of Botrytis cinerea on Strawberry (in vivo) (Botrytis cinerea [3]; 2.5 mg/disk, 5 days at 21° C.): 0%
lowest rate with 100% control of Botrytis cinerea (Botrytis cinerea [3]; strawberry, 5 days at 21° C.): 0.16 mg/disk
appearance of phytotoxicity (Botrytis cinerea [3]; strawberry, any of the rates evaluated (2.5 to 0.005 mg/disk)): no evidence of phytotoxicity
Incidence (%) (Botrytis cinerea [4]; 0.008 mg/disk, Time 3 h): 0%
Severity (0 to 3) (Botrytis cinerea [4]; 0.008 mg/disk, Time 3 h): 0.0
Incidence (%) (Botrytis cinerea [4]; 0.008 mg/disk, Time 6 h): 33%
Severity (0 to 3) (Botrytis cinerea [4]; 0.008 mg/disk, Time 6 h): 1.0
Incidence (%) (Botrytis cinerea [4]; 0.008 mg/disk, Time 24 h): 67%
Severity (0 to 3) (Botrytis cinerea [4]; 0.008 mg/disk, Time 24 h): 2.3
Incidence (%) (Botrytis cinerea [4]; 0.008 mg/disk, Time 72 h): 33%
Severity (0 to 3) (Botrytis cinerea [4]; 0.008 mg/disk, Time 72 h): 1.0
Incidence (%) (Botrytis cinerea [4]; 0.125 mg/disk, Time 1 h): 67%
Severity (0 to 3) (Botrytis cinerea [4]; 0.125 mg/disk, Time 1 h): 2.3
Incidence (%) (Botrytis cinerea [4]; 0.125 mg/disk, Time 3 h): 33%
Severity (0 to 3) (Botrytis cinerea [4]; 0.125 mg/disk, Time 3 h): 1.3
Incidence (%) (Botrytis cinerea [4]; 0.125 mg/disk, Time 6 h): 0%
Severity (0 to 3) (Botrytis cinerea [4]; 0.125 mg/disk, Time 6 h): 0.0
Incidence (%) (Botrytis cinerea [4]; 0.125 mg/disk, Time 24 h): 0%
Severity (0 to 3) (Botrytis cinerea [4]; 0.125 mg/disk, Time 24 h): 0.0
Incidence (%) (Botrytis cinerea [4]; 0.125 mg/disk, Time 72 h): 0%
Severity (0 to 3) (Botrytis cinerea [4]; 0.125 mg/disk, Time 72 h): 0.0
control of Botrytis cinerea (Botrytis cinerea [4]; strawberry, 0.125 mg/disk, after 6 hour exposure): 100%
appearance of phytotoxicity (Botrytis cinerea [4]; strawberry, 0.008 or 0.125 mg): no evidence of phytotoxicity
in vivo inhibition of Botrytis cinerea (Botrytis cinerea [5]): 100%
